# Source: article PMC3574224, “Na^+ Regulation in the Malaria Parasite Plasmodiumfalciparum Involves the Cation ATPase PfATP4 and Is a Target of the Spiroindolone Antimalarials” (Cell Host & Microbe, 2013)
# How the values were obtained:
# [1] = tested on: P. falciparum trophozoites; assay: Recovery of [Na^+]i from an imposed intracellular Na^+ load (K^+ removal and restoration); format: cell-based, Plasmodium falciparum; settings: added with 10 mM KCl
# Experimental: The mechanism responsible for the increase in [Na^+]i seen upon removal of extracellular K^+ was not investigated further here. However, the phenomenon does provide a useful means of imposing an intracellular Na^+ load on the parasite and of testing the effect of inhibitors on the net efflux of Na^+ from the Na^+-loaded parasite.
# (§1) The [Na^+]i of saponin-isolated parasites was measured at 37°C using the Na^+-sensitive dye SBFI (Molecular Probes, Invitrogen) in conjunction with a PerkinElmer LS 50B Fluorescence Spectrometer fitted with a Dual Excitation Fast Filter. Saponin-isolated parasites were loaded with SBFI by suspension (at 1.40–1.80 × 10^8 cells/mL) for 20 min at 37°C in bicarbonate-free RPMI1640 supplemented with 20 mM D-glucose, 0.2 mM hypoxanthine, 25 mM HEPES, and 25 mg/L gentamycin sulfate (pH 7.10), to which SBFI-acetoxymethyl ester (5.5 μM) and Pluronic F-127 (0.01% w/v) were added. The dye-loaded cells were washed twice (12,000 × g, 0.5 min) in bicarbonate-free RPMI then incubated for a further 20 min at 37°C to allow for complete de-esterification of the dye before being resuspended at a final cell concentration of 1.5–2.5 × 10^7 cells/mL in standard saline. The dye-loaded cells were excited at 340 nm and 380 nm with fluorescence recorded at 490 nm. Calibration of the relationship between the 340/380 nm fluorescence ratio and [Na^+]i (see Figures S1A–S1C) was carried out as described previously ([Diarra et al., 2001]; [Harootunian et al., 1989]). Several inhibitors used in this study caused inner filter effects ([Gu and Kenny, 2009]; [Srinivas and Mutharasan, 1987]); in these cases calibration curves were generated with the inhibitors present.
# The rate of efflux of Na^+ from the cells, following an imposed intracellular Na^+ load, was estimated by fitting the following function to the [Na^+]i traces: [Na^+]i = Δ[Na^+]i^max × e^-at + [Na^+]i^final, where Δ[Na^+]i^max is the increase in [Na^+]i above the normal resting value (following the imposition of an intracellular Na^+-load), t is the time after the commencement of efflux (on addition of extracellular K^+), a is a fitted constant, and [Na^+]i^final is the final value of [Na^+]i. The initial Na^+ efflux rate (at t = 0) is a × Δ[Na^+]i^max, and the half-time to complete recovery (t1/2) is ln(0.5)/-a.
# [2] = tested on: P. falciparum Dd2^attB CAM I398F/P990R (mutant PfATP4 transfectant); assay: Disruption of [Na^+]i regulation, SBFI-loaded trophozoites, Dd2^attB CAM I398F/P990R; format: cell-based; settings: Plasmodium falciparum, from fitted curves, read-out: IC50 for disruption of Na^+ regulation by NITD246
# Experimental: as §1, with “present. […]” for “present.”
# [3] = tested on: P. falciparum 3D7 trophozoites; assay: microbe, parasite or virus in culture; format: cell-based, Plasmodium falciparum
# Experimental: P. falciparum strains 3D7, Dd2, NITD609-R^Dd2 clone #2, Dd2^attB, and Dd2^attB CAM I398F/P990R were cultured under shaking conditions as described elsewhere ([Allen and Kirk, 2010]). Cultures were synchronized 24 hr before experimentation using 5% w/v sorbitol ([Lambros and Vanderberg, 1979]). All experiments were conducted on mature trophozoite-stage parasites (36–40 hr postinvasion) functionally isolated from their host erythrocytes by permeabilization of the erythrocyte and parasitophorous vacuole membranes by brief exposure to saponin (0.05% w/v) as described previously ([Spillman et al., 2008]).
# as §1, with “1989]).” for “1989]). Several inhibitors used in this study caused inner filter effects ([Gu and Kenny, 2009]; [Srinivas and Mutharasan, 1987]); in these cases calibration curves were generated with the inhibitors present.”
# The initial Na^+ influx rate (at t = 0) is a × Δ[Na^+]i^max.
# Dose-response curves were obtained using the expression y = y^min + y^max/(1 + [C/IC50]^b), where y is the parameter being measured (parasite proliferation, Na^+ influx, or ATPase activity), y^min is the minimum value of y, y^max is the maximum value of y, C is the concentration of the moiety that was varied in the experiment, IC50 is the concentration at which y was reduced to 50% of y^max, and b is a fitted constant.
smiles,measurement,setting,value
C[C@H]1Cc2c([nH]c3cc(F)c(F)cc23)[C@@]2(N1)C(=O)Nc1ccc(Cl)cc12 [NITD246],Effect on recovery of [Na^+]i after Na^+ load,[1]; 1 nM,[Na^+]i remaining at the level reached at the point of addition of extracellular K^+
same,Effect on recovery of [Na^+]i after Na^+ load,[1]; 5 nM,prolonged time-dependent increase in [Na^+]i
same,IC50,[2],3.9 ± 1.7 nM
same,Effect on resting [Na^+]i,"[3]; 50 nM, 3D7, standard saline",immediate rapid increase in [Na^+]i
same,IC50,"[3]; Plasmodium falciparum, concentration causing [Na^+]i to increase from resting value at half the maximal rate, from fitted curves, 3D7, standard saline, read-out: IC50 for disruption of Na^+ regulation",2.1 ± 0.8 nM
same,Rate of increase of [Na^+]i at maximally effective concentrations,[3]; maximally effective concentration,0.092 ± 0.007 mM/s
